Drawing on PubChem BioAssay (NCI), this text covers TGI and GI50 for 17 compounds.

Among the test systems are UACC-257 melanoma; COLO 205 colon; CAKI-1 renal; SF-268 CNS; UACC-62 melanoma; SK-MEL-2 melanoma; CCRF-CEM leukemia; M19-MEL melanoma; NCI/ADR-RES ovarian; PC-3 prostate.
Assay in all cases: NCI anticancer screen, dose series, 48 h

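Dose response: 5 concentrations. Exposure: 48 h. Format: 96-well plates. Endpoint: linear interpolation; highest concentration if not reached. GI50 marks 50% less growth. TGI is the concentration that stops growth completely.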

With `CCCC(N)C(=O)c1ccccc1` (configuration not stated), the TGI in the experiment with UACC-257 melanoma, with COLO 205 colon, with CAKI-1 renal, in the experiment with SF-268 CNS, in the experiment with UACC-62 melanoma and in the experiment with SK-MEL-2 melanoma was greater than 100 µM each time. Moreover, the TGI in the experiment with CCRF-CEM leukemia was greater than 100 µM.

For `CCOc1ccc(/C(C=O)=C(\Cl)c2ccc(OC)c(OC)c2)cc1`, the TGI in the experiment on COLO 205 colon, in the experiment with M19-MEL melanoma, with CAKI-1 renal, in the experiment on SF-268 CNS, in the experiment with UACC-62 melanoma and with SK-MEL-2 melanoma was greater than 100 µM in each case. In the experiment with CCRF-CEM leukemia, this compound had a TGI greater than 100 µM.

For the compound `O=C(O)C1CCC(=O)N1S(=O)(=O)c1ccccc1` (configuration not stated), the TGI in the experiment with UACC-257 melanoma, in the experiment on COLO 205 colon, in the experiment on M19-MEL melanoma, in the experiment on CAKI-1 renal, in the experiment with SF-268 CNS and in the experiment on UACC-62 melanoma was greater than 100 µM throughout. In addition, the TGI in the experiment on SK-MEL-2 melanoma, in the experiment with CCRF-CEM leukemia and in the experiment on NCI/ADR-RES ovarian was greater than 100 µM each time.

`C=C1C(=O)O[C@@H]2[C@H]1CCC(C)=C1C=CC(=O)[C@]12C`: the TGI was 27.1 µM in the experiment on UACC-257 melanoma; 33.2 µM with CAKI-1 renal; 45.9 µM with SF-268 CNS; 22.6 µM with UACC-62 melanoma; 79.4 µM in the experiment with SK-MEL-2 melanoma; 26 µM with CCRF-CEM leukemia.

On to `CC(=O)C=NCC(=O)O`, for which the TGI in the experiment on PC-3 prostate, in the experiment with UACC-257 melanoma, with COLO 205 colon, with CAKI-1 renal, in the experiment with SF-268 CNS and in the experiment on UACC-62 melanoma was greater than 100 µM in each case. The TGI with SK-MEL-2 melanoma, with CCRF-CEM leukemia and in the experiment with NCI/ADR-RES ovarian was greater than 100 µM in each case.

`c1ccc(N=c2nc(N3CCOCC3)ss2)cc1`: the TGI amounted to 29.8 µM in the experiment on UACC-257 melanoma; 32 µM with M19-MEL melanoma; 34.5 µM with CAKI-1 renal; 31.1 µM in the experiment on SF-268 CNS; 27.5 µM with UACC-62 melanoma; 43.4 µM with SK-MEL-2 melanoma.

As to `N#CC(Nc1cccc(C(F)(F)F)c1)c1ccccc1C(F)(F)F` (configuration not stated), the TGI turned out to be 27.7 µM in the experiment on UACC-257 melanoma; 10.6 µM in the experiment with COLO 205 colon; 18 µM in the experiment with M19-MEL melanoma; 9.09 µM in the experiment with CAKI-1 renal; 32.2 µM in the experiment with SF-268 CNS; 31.4 µM with UACC-62 melanoma. For the same compound, the TGI came to 17.9 µM in the experiment with SK-MEL-2 melanoma and 59.7 µM in the experiment on CCRF-CEM leukemia.

As to `COc1ccc(-c2nn(-c3cccc(NC(=O)Nc4ccccc4)c3)cc2-c2ccncc2)cc1Cl`, the GI50 in the experiment with PC-3 prostate is 1840 nM; in the experiment on UACC-257 melanoma, 2500 nM; with COLO 205 colon it was 2560 nM; with CAKI-1 renal, 2970 nM; with SF-268 CNS, 2600 nM; in the experiment on UACC-62 melanoma it was 3.05 µM. The GI50 in the experiment with SK-MEL-2 melanoma was 3140 nM; in the experiment with CCRF-CEM leukemia, 2650 nM; in the experiment on NCI/ADR-RES ovarian it was 2810 nM. The TGI was 4.5 µM in the experiment with PC-3 prostate; 6.33 µM with UACC-257 melanoma; 6.69 µM in the experiment on COLO 205 colon; 9.35 µM with CAKI-1 renal; 7 µM in the experiment on SF-268 CNS; greater than 100 µM in the experiment on UACC-62 melanoma. The figures for the TGI in the experiment with SK-MEL-2 melanoma, with CCRF-CEM leukemia and with NCI/ADR-RES ovarian were 7.53 µM, 8.31 µM and 8.26 µM, respectively.

Consider `NC1(C(=O)O)CCc2ccc(N(CCCl)CCCl)cc2C1` (configuration not stated), for which the TGI in the experiment with UACC-257 melanoma was greater than 100 µM; in the experiment on COLO 205 colon, greater than 100 µM; in the experiment with M19-MEL melanoma, greater than 100 µM; with SF-268 CNS, 87 µM; with UACC-62 melanoma, greater than 100 µM; in the experiment with SK-MEL-2 melanoma it was greater than 100 µM. Also, the TGI in the experiment with CCRF-CEM leukemia and in the experiment on NCI/ADR-RES ovarian was greater than 100 µM in each case.

Turning to `CCC(=O)NC(Nc1cccc(F)c1)(C(F)(F)F)C(F)(F)F`, the TGI with PC-3 prostate is greater than 100 µM; in the experiment on UACC-257 melanoma, greater than 100 µM; in the experiment with COLO 205 colon it was greater than 100 µM; with CAKI-1 renal, 93.9 µM; in the experiment on SF-268 CNS, greater than 100 µM; in the experiment with UACC-62 melanoma it was greater than 100 µM. In addition, the TGI with SK-MEL-2 melanoma, in the experiment with CCRF-CEM leukemia and in the experiment with NCI/ADR-RES ovarian was greater than 100 µM each time.

In the case of `Cc1cc2c(C(C)C)c(O)c(O)c(C=NCCO)c2c(O)c1-c1c(C)cc2c(C(C)C)c(O)c(O)c(C=NCCO)c2c1O`, the TGI in the experiment on UACC-257 melanoma came to 4.98 µM; with COLO 205 colon, 3.03 µM; with M19-MEL melanoma it was 3.62 µM; in the experiment on CAKI-1 renal it was 19.5 µM; in the experiment with SF-268 CNS, 3.1 µM; with UACC-62 melanoma, 6.15 µM. The TGI in the experiment on SK-MEL-2 melanoma was 14.6 µM; with CCRF-CEM leukemia, 5.78 µM.

For the compound `O=C(Nc1ccc(Sc2ccc(N=Nc3c(O)c(S(=O)(=O)O)cc4cc(S(=O)(=O)O)ccc34)cc2)cc1)c1ccc(N=Nc2c(O)ccc3c(S(=O)(=O)O)cc(S(=O)(=O)O)cc23)cc1`, the TGI in the experiment on UACC-257 melanoma is greater than 100 µM; in the experiment with COLO 205 colon, 35 µM; in the experiment with M19-MEL melanoma it was 68.6 µM; in the experiment with CAKI-1 renal, greater than 100 µM; in the experiment on SF-268 CNS it was greater than 100 µM; in the experiment with UACC-62 melanoma it was 49.7 µM. Moreover, the TGI is greater than 100 µM with SK-MEL-2 melanoma and 77.4 µM in the experiment on CCRF-CEM leukemia.

Take `CN1C[C@H]2[C@@H](C1=O)[C@H](c1ccccc1)ON2C`: the TGI in the experiment with PC-3 prostate, in the experiment on UACC-257 melanoma, in the experiment with COLO 205 colon, in the experiment with CAKI-1 renal, in the experiment with SK-MEL-2 melanoma and in the experiment with CCRF-CEM leukemia was greater than 100 µM in each case. Besides, the TGI in the experiment with NCI/ADR-RES ovarian was greater than 100 µM.

With `CC(=O)O[C@H]1C=CC(=O)C(C)CC1C` (some centres not stated), the TGI with UACC-257 melanoma, in the experiment with COLO 205 colon, in the experiment with M19-MEL melanoma, with CAKI-1 renal, in the experiment on SF-268 CNS and with UACC-62 melanoma was greater than 100 µM in each case. Moreover, the TGI in the experiment with SK-MEL-2 melanoma and in the experiment with CCRF-CEM leukemia was greater than 100 µM each time.

For the compound `Clc1ccc(CNc2nc(Cl)c3[nH]cnc3n2)cc1Cl`, the TGI in the experiment on PC-3 prostate is greater than 100 µM; in the experiment on UACC-257 melanoma, 48.9 µM; with COLO 205 colon it was 51.8 µM; with CAKI-1 renal, 79.9 µM; in the experiment on SF-268 CNS, 81.8 µM; with UACC-62 melanoma it was greater than 100 µM. The TGI is 77.9 µM in the experiment with SK-MEL-2 melanoma, greater than 100 µM in the experiment with CCRF-CEM leukemia and 69.6 µM in the experiment with NCI/ADR-RES ovarian.

Turning to `O=C(Nc1c(C(=O)NC2CCCCC2)[nH]c(=O)[nH]c1=O)c1ccc(Cl)cc1`, the TGI in the experiment with COLO 205 colon, in the experiment with M19-MEL melanoma, in the experiment with CAKI-1 renal, in the experiment on SF-268 CNS, with UACC-62 melanoma and with CCRF-CEM leukemia was greater than 100 µM in each case.

For `Fc1ccc(-c2nn3c(-c4cc(C(F)(F)F)cc(C(F)(F)F)c4)nnc3s2)cc1`, the GI50 in the experiment with PC-3 prostate is greater than 50000 nM; in the experiment on COLO 205 colon, greater than 50000 nM; with SF-268 CNS it was 3030 nM; with UACC-62 melanoma, greater than 50 µM; in the experiment with SK-MEL-2 melanoma, 1640 nM; in the experiment on CCRF-CEM leukemia, greater than 50000 nM. Moreover, in the experiment with NCI/ADR-RES ovarian, the GI50 is 2950 nM. For the same compound, the TGI in the experiment with PC-3 prostate was greater than 50 µM; in the experiment on COLO 205 colon, greater than 50 µM; in the experiment on SF-268 CNS, greater than 50 µM; with UACC-62 melanoma, greater than 50 µM; with SK-MEL-2 melanoma, 4.75 µM; in the experiment with CCRF-CEM leukemia it was greater than 50 µM. Besides, in the experiment with NCI/ADR-RES ovarian, the TGI is greater than 50 µM.
